Assay results from patent US20250101058A1, “CRYSTAL FORM OF HIGH-STABILITY NOR-URSODEOXYCHOLIC BERBERINE SALT, AND PREPARATION METHOD THEREFOR” (CHENGDU BIOBEL BIOTECHNOLOGY CO., LTD, priority 2022, published 2025).
Read-outs that look alike come from different tables or passages of the source.

Experiments:
[1] = Competition experiment for crystalline forms A, C, and D in suspension; type: physicochemical; conditions: aw 0.2-1; stirring at room temperature, 8 days; XRPD
Procedure: The starting material obtained in step 1 of Example 1 was added to the corresponding volume of solvent, and then allowed to suspend under stirring at room temperature for 2 h. The suspension was filtered with a 0.4 μm PTFE filter membrane to obtain a saturated solution. About 3 mg samples of crystalline forms A, C, and D were separately weighed and transferred to HPLC vials, to which was added 1 mL of saturated solution, and then the mixture was allowed to suspend under stirring at room temperature. After 8 days, the suspension was filtered to obtain the solid, and the change in crystalline form was identified by XRPD analysis.

[2] = Pressure stability testing (tableting at 10 kN); type: physicochemical; conditions: 10 kN pressure; for Adhesion percentage: (ML-MT)/ML×100%; for Tensile strength T: T=2H/πDt; for Crystalline form after pressing: XRPD of crushed sample; for Tablet diameter D / Tablet thickness t: after 24 h elastic recovery; for Adhesion amount: powder adhesive to the punch; for Hardness H: radial crushing strength
Procedure: 100 mg samples of crystalline forms A and D were respectively added to […] of round flat punch, and then pressed into circular tablets using 10 kN pressure. The loading mass (ML) and tablet mass (MT) were recorded, and then the formula ma=(ML-MT)/ML×100% was used to calculate the mass percentage (ma) of the powder adhesive to the punch; the pressed tablets were kept in a dryer for 24 h for elastic recovery. After elastic recovery, the diameter (D) and thickness (t) of the tablet were measured using a vernier caliper. The radial crushing strength (hardness, H) was measured using a tablet hardness tester, and the XRPD pattern of the crushed sample was also tested.

[3] = type: physicochemical; conditions: for Purity (area): HPLC
Procedure: The samples of crystalline forms A and D were stored in an opened bottle for one week under 25° C./60% RH and 40° C./75% RH conditions, respectively. The physical and chemical stability of the samples was detected by XRPD and HPLC.

[4] = Grinding stability testing (XRPD); type: physicochemical; conditions: 50 mg manually ground
Procedure: 50 mg samples of crystalline form A and crystalline form D were manually ground, and then detected by XRPD.

[5] = previous studies, CN2021110940333; cited from earlier work
[6] = Hygroscopicity test (dynamic vapor sorption, DVS); type: physicochemical
Procedure: The mass change percentage of crystalline form A was tested using dynamic vapor sorption (DVS) under constant temperature conditions of 25° C. and various humidity conditions, with a humidity change of 30% RH to 95% RH to 0% RH to 95% RH.
Crystalline form A had good physical stability.

[7] = Stability of crystalline form G on heating and on exposure after opening the cover; type: physicochemical; conditions: cover opened and kept for 1 h
[8] = One week, 25° C./60% RH and 40° C./75% RH

Row | Tablet mass [2] [mg] | Adhesion percentage [2] [%] | Tensile strength T [2] [MPa] | Crystalline form after pressing [2] | Tablet diameter D [2] [mm] | Tablet thickness t [2] [mm] | Adhesion amount [2] [mg] | Hardness H [2] [N] | Change of crystal structure / crystalline form (physical stability) [3] | Purity (area) ([3]; Initial) [%] | Relative purity percentage (vs initial purity) ([3]; One week, 25° C./60% RH) [%] | Purity (area) ([3]; One week, 25° C./60% RH) [%] | Relative purity percentage (vs initial purity) ([3]; One week, 40° C./75% RH) [%] | Purity (area) ([3]; One week, 40° C./75% RH) [%] | Crystalline form after grinding [4] | Compound | other results
1 |  |  |  |  |  |  |  |  |  |  |  |  |  |  |  | CC(CC(=O)[O-])C1CCC2C3C(O)CC4CC(O)CCC4(C)C3CCC12C.COc1ccc2cc3[n+](cc2c1OC)CCc1cc2c(cc1-3)OCO2 (stereo not drawn) [Crystalline form C, nor-ursodeoxycholic berberine salt] | Solid form obtained after competition in suspension [1]: transition to form A
2 | 96.9 | 3.3 | 1.69 | remained unchanged | 6.02 | 2.90 | 3.3 | 46.31 | not obviously changed | 98.61 | 99.63 | 98.24 | 99.37 | 97.99 | transformed into amorphous | CC(CC(=O)[O-])C1CCC2C3C(O)CC4CC(O)CCC4(C)C3CCC12C.COc1ccc2cc3[n+](cc2c1OC)CCc1cc2c(cc1-3)OCO2 (stereo not drawn) [Crystalline form D, nor-ursodeoxycholic berberine salt] | Purity decrease ([3]; One week, 25° C./60% RH): 0.37%; Crystallinity after storage [3, 8]: the crystallinity decreased; Sample appearance after storage [3, 8]: turned dark brown; Purity decrease ([3]; One week, 40° C./75% RH): 0.62%
3 |  |  |  |  |  |  |  |  |  |  |  |  |  |  |  | nor-ursodeoxycholic berberine salt | Alanine aminotransferase (ALT) [5]: significantly reduce; Alkaline phosphatase (ALP) [5]: significantly reduce; Glutamic oxaloacetic transaminase (AST) [5]: significantly reduce; Liver pathological damage (such as hepatic steatosis) [5]: significant improvement effect; Therapeutic effect on fatty liver, liver fibrosis, and cirrhosis versus HTD1801 [5]: significantly better than that of HTD1801; Therapeutic effect on fatty liver, liver fibrosis, and cirrhosis versus individual norUDCA and berberine hydrochloride [5]: superior to the sum of the effects produced by individual norUDCA and berberine hydrochloride
4 | 103.2 | 1.6 | 2.38 | remained unchanged | 6.02 | 2.90 | 1.7 | 65.37 | the crystal structure was not changed | 99.26 | 100.0 | 99.24 | 100.0 | 99.23 | remained unchanged | nor-ursodeoxycholic berberine salt [Crystalline form A] | Purity change (chemical stability) [3]: not changed significantly; Crystallinity after grinding [4]: the crystallinity decreased; Water adsorption rate ([6]; DVS, 25° C., 80% RH): 8.7%; Water absorption behaviour ([6]; DVS, 25° C., after the relative humidity reached 10%): slowly absorbed water; Water absorption behaviour ([6]; DVS, 25° C., relative humidity range of 0% to 10%): rapidly absorbed water; Crystalline form before and after DVS testing ([6]; XRPD after DVS): did not change
5 |  |  |  |  |  |  |  |  |  |  |  |  |  |  |  | CC(CC(=O)[O-])C1CCC2C3C(O)CC4CC(O)CCC4(C)C3CCC12C.COc1ccc2cc3[n+](cc2c1OC)CCc1cc2c(cc1-3)OCO2 (stereo not drawn) [Crystalline form G, nor-ursodeoxycholic berberine salt] | Crystalline form after opening the cover [7]: turned back into form A
